“Also recorded” adds a separate entry of the source.
Tests used:
Format in all cases: in vivo, mouse
[1] = system: db/db mice; test: Open field test, off-target effects of AP in db/db mice; details: AP 10 mg/kg i.p. 3 days every 2 weeks for 8 weeks
Protocol: (§1) For off target effect measurements db/db and HDF mice (fed with HFD for 2 months prior treatment) were injected intraperitoneally (i.p.) with […] at 10 mg/kg or vehicle for 3 days every 2 weeks for 8 weeks.
(§2) Locomotor activity and anxiety-like behavior of mice were assessed in sound-insulated, rectangular activity chambers (Med Associates Inc., St Albans, Vt., USA: W×L×D=27 cm×27 cm×20 cm with continually running fans, infrared lasers, and sensors). Beam breaks were assessed in 2-minute bins over 30 minutes, converted automatically to current mouse location and distance travelled (cm), and recorded on a computer with Med-PC software Version 4.0. Before the test, mice were acclimatized to the room for 1-1.5 hours before being introduced into the chambers. Mice were habituated for 5 minutes in the Open Field chamber (without recording) then placed for another 5 minutes in the home cage. Afterwards, mice were introduced back to the chambers and all mouse movements were recorded for 30 minutes. Anxiety was quantified by the distance mice travelled in the central 25% of the chamber (zone 1) as a function of the total distance mice travelled and by frequencies of entries into zone 1.

[2] = system: HFD-fed INK-ATTAC mice; test: Open field test, chow/HFD INK-ATTAC mice treated with AP20187
Protocol: (§3) INK-ATTAC mice were injected intraperitoneally (i.p.) with AP20187 (10 mg/kg) or vehicle for 3 days every 2 weeks for a total of 8-10 weeks.
as §2

[3] = system: senescent cells in perigonadal adipose tissue; test: Senescence markers in perigonadal adipose tissue, INK-ATTAC mice on HFD; details: AP20187 vs vehicle
Protocol: as §3
Total RNA was extracted from white adipose tissue and brain using Trizol (Life Technologies, Carlsbad, Calif.) and reverse transcribed to cDNA with a M-MLV Reverse Transcriptase kit (Life Technologies). Real-time PCR was performed in a 7500 Fast Real Time PCR System (Applied Biosystems, Foster City, Calif.) using TaqMan Fast Universal PCR Master Mix (Life Technologies) and predesigned primers and probes from Applied Biosystems (Assay ID: Mm00494449_m1 [CDKN2A]; Mm04205640_g1 [CDKN1A]; Mm00446191_m1 [IL6]). Target gene expression was expressed as 2-ΔΔCT by the comparative CT method and normalized to the expression of TATA-binding protein (TBP) (Assay ID: Mm01277042 ml [TBP]).
On the day of the sacrifice, a small piece of adipose tissue was fixed with 2% PFA and 0.5% glutaraldehyde (Sigma) for 15 minutes at room temperature before being incubated overnight in SA-β-Gal solution (150 mM NaCl (Sigma), 2 mM MgCl2 (Sigma), 40 mM Citric Acid (Sigma), 12 mM NaPO3 (Sigma), 400 μg/ml X-gal (Thermofisher), 2.1 mg/ml potassium hexacyanoferrat(II)trihydrate, and 1.65 mg/ml Potassium hexacyanoferrat(III)trihydrate (Sigma), pH 6.0) at 37° C. overnight. Fat chunks were washed with PBS three times and stored in PBS at 4° C. protected from light. Within 3 days, adipose tissue was stained with Hoechst solution (1:5000; Thermofisher), lightly squashed between two 1×3 inch glass slides, and imaged using a light microscope. 10-20 random visual fields were captured at 20× magnification at light exposure identical for all the samples. Images were quantified by manual counting of SA-β-Gal positive cells by a blinded assessor and the data were expressed as percent of total DAPI-positive cells.
Paraffin sections were deparaffinized with Histoclear and hydrated in an ethanol gradient followed by water and PBS. Antigen was retrieved by incubation in 0.01M citrate buffer (pH 6.0) at 95° C. for 10 minutes. Slides were placed in blocking buffer (1:60 normal goat serum [S-1000, Vector Laboratories] in 0.1% BSA/PBS) for 60 minutes at room temperature. […] Primary antibodies used (Table 2) were diluted in blocking buffer and applied overnight at 4° C. The next day, slides were washed 3 times with PBS and incubated for 30 minutes with secondary goat, anti-rabbit antibody (1:200; Vector Laboratories #BA-1000) for TAF staining or for 60 minutes with secondary Alexa antibody (Table 1). For TAF staining, Fluorescein-Avidin in PBS (1:500; #A-2011, Vector Lab) was applied to each sample for 20 minutes. Slides were washed 3 times in PBS, which was followed by FISH for TAF detection. Briefly, tissues were crosslinked with 4% paraformaldehyde for 20 minutes and dehydrated in graded ethanol. Sections were denatured for 10 minutes at 80° C. in hybridization buffer (70% formamide (Sigma), 25 mM MgCl2, 0.1 M Tris (pH 7.2), and 5% blocking reagent [Roche]) containing 2.5 μg ml^−1 Cy-3-labelled telomere-specific (CCCTAA) peptide nucleic acid probe (Panagene), followed by hybridization for 2 hour at room temperature in the dark. Slides were washed twice with 70% formamide in 2×SSC for 15 minutes, followed by washes in 2×SSC and PBS for 10 minutes. Sections were mounted in Vectashield, DAPI-containing mounting media and imaged.
A single, 3 μm-thick section per mouse was used for TAF staining, while for Dcx and Plin2 staining was performed on three 10 μm-thick sections 80 μm-apart. To quantify periventricular lipid accumulation 10-30 images in the periventricular region were taken using the DM5500 widefield fluorescence microscope from Leica with a 10× (for frequency of periventricular glia) or ×40 (for ALISE phenotype of ependymal cells) objective lens. Number of Plin2-positive cells (for frequency of ALISE-positive periventricular glia) or area of Plin2-positive vesicles (for ALISE phenotype of ependymal cells) was assessed using ImageJ software. […]

[4] = system: wild-type C57Bl/6 mice; test: Open field test, off-target effects of AP in wild-type C57Bl/6 mice on HFD; details: AP 10 mg/kg i.p. 3 days every 2 weeks for 8 weeks
Protocol: as §1, §2

[5] = INK-ATTAC mice on HFD, AP20187 10 mg/kg i.p. 3 days every 2 weeks, 8-10 weeks, vs vehicle

CC[C@H](C(=O)N1CCCC[C@H]1C(=O)O[C@H](CCc1ccc(OC)c(OC)c1)c1cccc(OCC(=O)NCC(CNC(=O)COc2cccc([C@@H](CCc3ccc(OC)c(OC)c3)OC(=O)[C@@H]3CCCCN3C(=O)[C@@H](CC)c3cc(OC)c(OC)c(OC)c3)c2)CN(C)C)c1)c1cc(OC)c(OC)c(OC)c1 [AP]
anxiety-like behavior by open field test, off-target control [1]: no difference; also recorded: No off-target effects
anxiety-like behavior: distance travelled in the central zone (as function of total distance), open field [2, 5]: alleviated; also recorded: reduced HFD-induced anxiety-like behavior
anxiety-like behavior: entries into the central zone, open field [2, 5]: alleviated; also recorded: reduced HFD-induced anxiety-like behavior
total distance travelled, open field ([2]; INK-ATTAC mice, AP20187 10 mg/kg i.p. vs vehicle): did not affect
open field parameters (central distance, entries) in chow-fed mice ([2]; chow-fed INK-ATTAC mice, AP20187 10 mg/kg i.p. vs vehicle): did not affect
% SA-β-Gal positive cells, perigonadal adipose tissue [3]: significantly reduced
p16Ink4a (RT-PCR), perigonadal adipose tissue [3]: significantly reduced
p21 (PCR), perigonadal adipose tissue [3]: not significantly changed
telomere-associated DNA damage foci (TAF), perigonadal adipose tissue [3]: significantly reduced
γ-H2A.X DNA damage foci, perigonadal adipose tissue [3]: not significantly changed
% SA-β-Gal positive cells, perigonadal adipose tissue ([3]; listed as AP20187): complete rescue
p21 (PCR), perigonadal adipose tissue ([3]; listed as AP20187): no change
γ-H2A.X DNA damage foci, perigonadal adipose tissue ([3]; listed as AP20187): no change
anxiety-like behavior in open field (distance in the center), off-target control [4]: no difference

— patent US20210379068A1, “METHODS AND MATERIALS FOR TREATING NEUROPSYCHIATRIC DISORDERS” (Mayo Foundation for Medical Education and Research, priority 2018, published 2021)
